Reference: ChEMBL document CHEMBL5346964, “Discovery of LNP1892: A Precision Calcimimetic for the Treatment of Secondary Hyperparathyroidism” (J Med Chem, 2023)

Tests used:
[1] = AUC(0 to t) in human at 25 mg/kg, po administered as single dose; assay type: ADME, organism-based; set-up: dose 25 mg/kg, route po; conditions: in vivo
[2] = Plasma clearance in Beagle dog at 1 mg/kg, iv measured upto 24 hrs by LC/MS-MS analysis; assay type: ADME, organism-based, Canis lupus familiaris
[3] = Half life in Sprague-Dawley rat at 1 mg/kg, iv measured upto 24 hrs by LC/MS-MS analysis; assay type: ADME, organism-based; conditions: in vivo
[4] = Tmax in Sprague-Dawley rat at 10 mg/kg, po measured upto 24 hrs by LC/MS-MS analysis; assay type: ADME, organism-based; conditions: in vivo
[5] = Effect on parathyroid hormone in overnight fasted Sprague-Dawley rat assessed as reduction in plasma PTH level at 10 mg/kg, po measured after 0.5 hrs of post treatment by sandwich ELISA analysis; assay type: functional; set-up: scale not given: the % may be the effect or the level left
[6] = Half life in Sprague-Dawley rat at 1 mg/kg, iv measured upto 24 hrs by LC-MS/MS analysis; assay type: ADME, organism-based; conditions: in vivo
[7] = Cmax in rat at 25 mg/kg per day, po via gavage administered for 13 weeks; assay type: ADME, organism-based; set-up: time 13 weeks, dose 25 mg/kg, route po; conditions: in vivo
[8] = Tmax in Beagle dog at 5 mg/kg, po measured upto 24 hrs by LC/MS-MS analysis; assay type: ADME, organism-based, Canis lupus familiaris; conditions: in vivo
[9] = Tmax in Sprague-Dawley rat at 10 mg/kg, po administered as suspension measured upto 24 hrs by LC-MS/MS analysis; assay type: ADME, organism-based; conditions: in vivo
Rattus norvegicus [10] = experiment: Acute effect on parathyroid hormone in overnight fasted adenine diet-induced chronic kidney disease Wistar rat model assessed as reduction in plasma PTH level at 10 mg/kg, po measured after 1 hrs of post treatment by sandwich ELISA analysis; assay type: functional; set-up: scale not given: the % may be the effect or the level left
[11] = AUC(0 to 24 hrs) in Sprague-Dawley rat at 100 mg/kg; assay type: ADME, organism-based; set-up: dose 100 mg/kg; conditions: in vivo
Rattus norvegicus [12] = experiment: Acute effect on parathyroid hormone in overnight fasted adenine diet-induced chronic kidney disease Wistar rat model assessed as reduction in plasma PTH level at 10 mg/kg, po measured after 2 hrs of post treatment by sandwich ELISA analysis; assay type: functional; set-up: scale not given: the % may be the effect or the level left
[13] = Efflux ratio of apparent permeability across basolateral to apical over apical to basolateral membrane in human Caco-2 cells at 5 uM measured after 120 mins by LC-MS/MS analysis; assay type: ADME, cell-based
[14] = Plasma clearance in BALB/c mouse at 1 mg/kg, iv measured upto 24 hrs by LC/MS-MS analysis; assay type: ADME, organism-based
Rattus norvegicus [15] = experiment: Subchronic effect on parathyroid hormone in overnight fasted adenine diet-induced chronic kidney disease Wistar rat model plasma assessed as reduction in plasma PTH level at 1 mg/kg, po qd measured after 27 days of post treatment by sandwich ELISA analysis; assay type: functional; set-up: scale not given: the % may be the effect or the level left; conditions: time 27 day
[16] = AUC in cynomolgus monkey at 5 mg/kg, po measured upto 24 hrs by LC/MS-MS analysis; assay type: ADME, organism-based, Macaca fascicularis; set-up: dose 5 mg/kg, time < 24 hrs, route po; conditions: in vivo
[17] = Drug excretion in rat assessed as drug recovery in urine at 10 mg/kg, po; assay type: ADME, organism-based; conditions: read-out: Drug recovery
[18] = Cmax in human at 10 mg/kg, po administered as single dose; assay type: ADME, organism-based; set-up: dose 10 mg/kg, route po; conditions: in vivo
[19] = Oral bioavailability in Beagle dog at 5 mg/kg measured upto 24 hrs by LC/MS-MS analysis; assay type: ADME, organism-based, Canis lupus familiaris; conditions: in vivo
[20] = Chemical stability of the compound at pH 4 measured after 0.5 to 4 hrs; assay type: physicochemical; conditions: buffer, time 0.5-4 hrs
hERG = hERG (Homo sapiens, UniProt Q12809); experiment: Inhibition of hERG at 10 uM relative to control; assay type: toxicity
Sequence of hERG (Q12809 whole entry): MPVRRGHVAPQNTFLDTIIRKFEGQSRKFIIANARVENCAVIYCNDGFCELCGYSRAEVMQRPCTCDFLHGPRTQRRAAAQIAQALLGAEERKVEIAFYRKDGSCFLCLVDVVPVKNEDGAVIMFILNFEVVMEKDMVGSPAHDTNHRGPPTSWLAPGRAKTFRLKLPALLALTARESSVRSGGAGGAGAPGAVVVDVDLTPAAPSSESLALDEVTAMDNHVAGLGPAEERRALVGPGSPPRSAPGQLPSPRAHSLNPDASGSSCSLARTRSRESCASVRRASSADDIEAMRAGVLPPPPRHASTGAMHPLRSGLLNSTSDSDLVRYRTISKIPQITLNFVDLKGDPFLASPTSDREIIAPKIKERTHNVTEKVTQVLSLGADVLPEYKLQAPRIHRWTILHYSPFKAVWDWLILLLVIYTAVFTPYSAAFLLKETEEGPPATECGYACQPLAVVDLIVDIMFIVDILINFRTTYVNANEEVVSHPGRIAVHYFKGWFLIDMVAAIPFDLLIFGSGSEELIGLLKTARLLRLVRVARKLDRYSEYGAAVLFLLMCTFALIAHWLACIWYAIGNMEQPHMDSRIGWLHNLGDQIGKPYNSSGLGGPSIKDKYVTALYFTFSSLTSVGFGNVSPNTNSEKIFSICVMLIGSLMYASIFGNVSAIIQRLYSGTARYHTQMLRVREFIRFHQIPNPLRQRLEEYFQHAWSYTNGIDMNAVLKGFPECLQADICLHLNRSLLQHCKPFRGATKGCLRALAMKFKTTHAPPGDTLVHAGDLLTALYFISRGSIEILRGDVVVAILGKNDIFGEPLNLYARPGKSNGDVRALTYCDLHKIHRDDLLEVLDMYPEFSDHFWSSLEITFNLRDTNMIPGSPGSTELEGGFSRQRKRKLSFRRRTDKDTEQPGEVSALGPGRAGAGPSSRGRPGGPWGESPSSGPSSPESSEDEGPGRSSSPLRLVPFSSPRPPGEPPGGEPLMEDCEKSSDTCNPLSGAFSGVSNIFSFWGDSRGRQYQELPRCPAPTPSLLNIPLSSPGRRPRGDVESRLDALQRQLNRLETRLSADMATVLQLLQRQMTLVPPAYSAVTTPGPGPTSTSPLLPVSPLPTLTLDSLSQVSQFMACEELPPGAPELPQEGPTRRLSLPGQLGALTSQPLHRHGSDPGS

[21] = Tmax in BALB/c mouse at 10 mg/kg, po measured upto 24 hrs by LC/MS-MS analysis; assay type: ADME, organism-based; conditions: in vivo
[22] = Cmax in Sprague-Dawley rat at 10 mg/kg; assay type: ADME, organism-based; set-up: dose 10 mg/kg; conditions: in vivo
Cytochrome P450 2B6 = target: T1, Cytochrome P450 2B6 (Homo sapiens, UniProt P20813); experiment: Inhibition of CYP2B6 in human liver microsomes preincubated for 5 mins followed by NADPH addition by LC-MS/MS analysis; assay type: ADME, Microsome
T1 sequence (P20813 whole entry): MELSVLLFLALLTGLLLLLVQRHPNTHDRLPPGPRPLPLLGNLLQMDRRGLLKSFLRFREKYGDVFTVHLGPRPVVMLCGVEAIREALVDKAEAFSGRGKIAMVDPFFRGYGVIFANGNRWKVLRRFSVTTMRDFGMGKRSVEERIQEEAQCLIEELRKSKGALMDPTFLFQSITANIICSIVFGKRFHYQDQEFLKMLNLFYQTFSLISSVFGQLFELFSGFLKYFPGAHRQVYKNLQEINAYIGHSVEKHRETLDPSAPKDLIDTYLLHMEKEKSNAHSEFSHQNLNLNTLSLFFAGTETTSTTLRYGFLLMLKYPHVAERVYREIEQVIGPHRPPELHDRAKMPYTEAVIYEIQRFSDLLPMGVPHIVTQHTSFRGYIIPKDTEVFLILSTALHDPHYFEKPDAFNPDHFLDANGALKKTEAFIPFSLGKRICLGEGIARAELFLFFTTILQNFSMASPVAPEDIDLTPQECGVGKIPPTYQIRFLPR

Cytochrome P450 2A6 = target: T2, Cytochrome P450 2A6 (Homo sapiens, UniProt P11509); experiment: Inhibition of CYP2A6 in human liver microsomes preincubated for 5 mins followed by NADPH addition by LC-MS/MS analysis; assay type: ADME, Microsome
T2 sequence (P11509 whole entry): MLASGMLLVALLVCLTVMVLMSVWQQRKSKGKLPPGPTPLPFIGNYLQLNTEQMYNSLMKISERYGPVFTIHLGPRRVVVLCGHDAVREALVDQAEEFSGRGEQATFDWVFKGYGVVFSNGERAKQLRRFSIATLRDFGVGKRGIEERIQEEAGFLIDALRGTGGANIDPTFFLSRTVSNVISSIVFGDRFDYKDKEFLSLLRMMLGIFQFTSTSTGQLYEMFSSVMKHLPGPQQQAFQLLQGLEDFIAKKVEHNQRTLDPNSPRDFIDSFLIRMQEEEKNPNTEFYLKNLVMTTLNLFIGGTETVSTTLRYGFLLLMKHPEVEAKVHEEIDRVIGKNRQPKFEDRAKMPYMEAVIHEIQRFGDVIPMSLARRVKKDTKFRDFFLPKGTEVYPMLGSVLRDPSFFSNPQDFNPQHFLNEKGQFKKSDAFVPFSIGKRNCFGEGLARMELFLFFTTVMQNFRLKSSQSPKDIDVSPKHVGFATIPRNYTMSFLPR

[23] = Volume of distribution at steady state in Sprague-Dawley rat at 10 mg/kg, po administered as solution measured upto 24 hrs by LC-MS/MS analysis; assay type: ADME, organism-based; conditions: in vivo
[24] = Chemical stability of the compound at pH 2 measured after 0.5 to 4 hrs; assay type: physicochemical; conditions: buffer, time 0.5-4 hrs
[25] = Drug excretion in BALB/c mouse assessed as drug recovery in urine at 10 mg/kg, po; assay type: ADME, organism-based; conditions: read-out: Drug recovery
[26] = Stability in human plasma measured up to 4 hrs by LC-MS/MS method; assay type: ADME, cell-free; conditions: read-out: Stability
[27] = Metabolic stability in dog liver cytosol measured upto 60 mins by LC-MS/MS method; assay type: ADME, subcellular, Canis lupus familiaris; conditions: read-out: Stability
[28] = Stability in rat plasma measured up to 4 hrs by LC-MS/MS method; assay type: ADME, cell-free; conditions: read-out: Stability
[29] = Effect on parathyroid hormone in overnight fasted Sprague-Dawley rat assessed as reduction in plasma PTH level at 10 mg/kg, po measured after 4 hrs of post treatment by sandwich ELISA analysis (reference value: 18%); assay type: functional; set-up: scale not given: the % may be the effect or the level left

SMILES: Cc1ccc([C@@H]2C[C@H](CN[C@H](C)c3cccc4ccccc34)Oc3ccccc32)cc1C(=O)O.Cl
- AUC(0-t) [1]: 2.93 µg·h/mL
- clearance [2]: 0.12 L/h/kg
- half-life [3]: 240 min
- Tmax [4]: 36 min
- Activity [5]: 100%
- half-life [6]: 240 min
- Cmax [7]: 9.66 µg/mL
- Tmax [8]: 42 min
- Tmax [9]: 60 min
- Activity (Rattus norvegicus [10]): 96%
- AUC(0-t) [11]: 426 µM·h
- Activity (Rattus norvegicus [12]): 89%
- efflux ratio at 2 h, 5 µM [13]: 0.3
- clearance [14]: 0.156 L/h/kg
- Activity (Rattus norvegicus [15]): 83%
- AUC at 24 h [16]: 1.3 µM·h
- dose excreted [17]: < 1%
- Cmax [18]: 0.202 µg/mL
- bioavailability [19]: 79%
- Stability [20]: Stable
- inhibition at 10 µM (hERG): 4%
- Tmax [21]: 15 min
- Cmax [22]: 4 µM
- IC50 (Cytochrome P450 2B6): 64 µM
- IC50 (Cytochrome P450 2A6): 41 µM
- Vdss [23]: 0.6 L/kg
- Stability [24]: Stable
- dose excreted [25]: < 1%
- remaining at 4 h [26]: > 80%
- remaining at 1 h [27]: > 80%
- remaining at 4 h [28]: > 80%
- Activity [29]: 88%
